Experiment [1] addresses T1, recombinant N-terminal GST-tagged human Rho kinase 1 (ROCK1, amino acids 1-535) (Homo sapiens, UniProt Q13464).
T1 construct: ROCK1, amino acids 1-535; purchased Invitrogen Inc. PV-3691
Briefly: In vitro Rho kinase assay (luciferase-based ATP consumption), ROCK1. Conditions: recombinant GST-tagged human ROCK1, luciferase-based ATP consumption; read-out: ROCK1 IC50. The format is biochemical. As to the method: In Vitro Rho Kinase Assay
Rho kinase biochemical assays described below depend on firefly luciferase-based, indirect measurement of total ATP consumption by the kinase following incubation with substrate and ATP. 25 μl of Rho kinase assay buffer (20 mM Tris-HCL [pH 7.5], 1 mM MgCl2, 0.4 mM CaCl2, 0.15 mM EGTA, 0.1 mg/ml bovine serum albumin) containing 0.82 μg/ml of recombinant N-terminal GST-tagged human Rho kinase 1 (ROCK1, amino acids 1-535, Invitrogen Inc., cat. #PV-3691) or recombinant N-terminal GST-tagged human Rho kinase 2 (ROCK2, amino acids 1-552, Invitrogen Inc., cat #PV3759), 100 μg/ml S6 peptide substrate (related to amino acids 218-249 of the human 40S ribosomal protein S6, and suitable for ROCK1 or ROCK2, e.g. Upstate/Millipore Inc., cat #12-420), and 3 µM ATP are dispensed to wells of a 384 multi-well opaque plate. The plate is centrifuged for 30 seconds at approximately 200×g. 240 nl of test compound in DMSO is dispensed to each well by passive pin transfer. The lag phase of this in vitro kinase reaction permits addition of compounds soon after the reaction initiates. The reaction is allowed to incubate at 30° C. for 2 hours. The assay plates are sealed and maintained in a humidified environment. After 2 hours, 25 μl of easylite protein kinase assay reagent (Perkin-Elmer, Inc.) is dispensed. After an additional 10 minute incubation at room temperature (about 22° C.), luminescence activity is measured on a Molecular Devices Analyst multi-mode plate reader or other suitable plate reader. Kinase inhibition results in less ATP consumption, and therefore increased luminescence signal. Negative control activity is measured with DMSO lacking any test compound. The positive control is 2-methyl-1-(4-methylisoquinolin-5-ylsulfonyl)perhydro-1,4-diazepine hydrochloride (aka H-1152P, HCl salt). Efficacy is measured as a percentage of positive control activity. […] The designation NT means the cited example was not tested.

Experiment [2] concerns the target T2, recombinant N-terminal GST-tagged human Rho kinase 2 (ROCK2, amino acids 1-552) (Homo sapiens, UniProt O75116).
T2 construct: ROCK2, amino acids 1-552; purchased Invitrogen Inc. PV3759
The experiment in a line: In vitro Rho kinase assay (luciferase-based ATP consumption), ROCK2. The format is biochemical. The conditions noted are these: recombinant GST-tagged human ROCK2, luciferase-based ATP consumption; read-out: ROCK2 IC50. The procedure, abridged:
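GST-ROCK2 (aa 1-552, 0.82 μg/ml) with 100 μg/ml S6 peptide and 3 µM ATP in Tris pH 7.5 buffer with MgCl2/CaCl2/EGTA/BSA, compound added just after reaction start, 2 h at 30 °C. Remaining ATP read by luciferase luminescence. Efficacy expressed as percentage of H-1152P positive control.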

These results are taken from patent US20080021026A1, “BENZOTHIOPHENE INHIBITORS OF RHO KINASE” (priority 2006, published 2008).

Structures are written as SMILES.

As a reminder, the IC50 is the concentration that inhibits the measured activity by half.

T1 sequence (Q13464 1-535): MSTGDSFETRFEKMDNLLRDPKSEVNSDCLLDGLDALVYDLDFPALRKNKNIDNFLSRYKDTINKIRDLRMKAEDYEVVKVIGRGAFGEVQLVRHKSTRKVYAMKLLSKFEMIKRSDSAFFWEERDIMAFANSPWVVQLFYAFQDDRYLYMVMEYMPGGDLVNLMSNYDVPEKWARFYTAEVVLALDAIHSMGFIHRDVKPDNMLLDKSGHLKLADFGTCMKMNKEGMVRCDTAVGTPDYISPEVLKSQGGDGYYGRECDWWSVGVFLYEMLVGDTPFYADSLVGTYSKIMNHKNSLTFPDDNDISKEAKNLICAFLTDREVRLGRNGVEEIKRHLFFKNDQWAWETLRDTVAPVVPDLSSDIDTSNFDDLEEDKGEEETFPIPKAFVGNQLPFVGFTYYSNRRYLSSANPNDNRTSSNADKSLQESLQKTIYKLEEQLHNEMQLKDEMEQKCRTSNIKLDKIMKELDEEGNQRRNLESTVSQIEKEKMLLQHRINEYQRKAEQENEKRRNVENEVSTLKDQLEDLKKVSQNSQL
T2 sequence (O75116 1-552): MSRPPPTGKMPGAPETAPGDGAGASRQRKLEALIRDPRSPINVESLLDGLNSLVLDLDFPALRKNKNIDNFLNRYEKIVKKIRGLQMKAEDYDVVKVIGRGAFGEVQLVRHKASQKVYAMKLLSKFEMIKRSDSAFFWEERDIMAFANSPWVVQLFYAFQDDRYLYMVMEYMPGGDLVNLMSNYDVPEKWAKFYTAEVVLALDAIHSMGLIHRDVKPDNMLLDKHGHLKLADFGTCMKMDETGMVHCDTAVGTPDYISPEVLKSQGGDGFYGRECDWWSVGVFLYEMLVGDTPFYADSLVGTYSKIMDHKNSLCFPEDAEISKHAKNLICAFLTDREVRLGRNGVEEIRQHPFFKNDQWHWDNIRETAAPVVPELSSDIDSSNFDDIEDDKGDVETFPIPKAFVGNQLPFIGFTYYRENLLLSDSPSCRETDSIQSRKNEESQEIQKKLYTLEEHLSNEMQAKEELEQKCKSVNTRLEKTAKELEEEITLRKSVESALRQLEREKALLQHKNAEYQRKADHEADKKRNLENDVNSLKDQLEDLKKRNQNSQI

Take `Cc1c(-c2c[nH]c3ncccc23)sc2ccc(Cl)cc12` [Example 5, 3-(5-Chloro-3-methylbenzo[b]thiophen-2-yl)-1H-pyrrolo[2,3-b]pyridine]: the IC50 in experiment [1] and in experiment [2] was above 5 µM throughout.

For `Cc1c(-c2ccnc3[nH]ccc23)sc2ccc(Cl)cc12` [Example 6, 4-(5-Chloro-3-methylbenzo[b]thiophen-2-yl)-1H-pyrrolo[2,3-b]pyridine], the half-maximal inhibitory concentration (IC50) in experiment [1] and in experiment [2] was above 5 µM in each case.

`Cc1c(-c2ccnc(N)c2)sc2ccc(Cl)cc12` [Example 7, 4-(5-Chloro-3-methylbenzo[b]thiophen-2-yl)pyridin-2-amine]: the IC50 in experiment [1] and in experiment [2] was above 5 µM throughout.

For `Cc1c(-c2cc(N)ncn2)sc2ccc(Cl)cc12` [Example 8, 6-(5-Chloro-3-methylbenzo[b]thiophen-2-yl)pyrimidin-4-amine], the 50% inhibitory concentration (IC50) in experiment [1] and in experiment [2] was above 5 µM each time.

On to `Cc1c(-c2cc(N)nc(N)n2)sc2ccc(Cl)cc12` [Example 9, 6-(5-Chloro-3-methylbenzo[b]thiophen-2-yl)pyrimidine-2,4-diamine], for which the IC50 in experiment [1] and in experiment [2] was above 5 µM throughout.

On to `Cc1c(-c2ccc3[nH]ncc3c2)sc2ccc(Cl)cc12` [Example 10, 5-(5-Chloro-3-methylbenzo[b]thiophen-2-yl)-1H-indazole], for which the half-maximal inhibitory concentration (IC50) in experiment [1] and in experiment [2] was below 5 µM each time.

Take `Cc1c(-c2cccnc2N)sc2ccc(Cl)cc12` [Example 11, 3-(5-Chloro-3-methylbenzo[b]thiophen-2-yl)pyridin-2-amine]: the IC50 in experiment [1] and in experiment [2] was above 5 µM each time.

As for `Cc1c(-c2nccnc2N)sc2ccc(Cl)cc12` [Example 12, 3-(5-Chloro-3-methylbenzo[b]thiophen-2-yl)pyrazin-2-amine], the IC50 in experiment [1] and in experiment [2] was above 5 µM in each case.

Take `Cc1c(-c2ccnc(N)n2)sc2ccc(Br)cc12` [Example 13, 4-(5-Bromo-3-methylbenzo[b]thiophen-2-yl)pyrimidin-2-amine]: the IC50 in experiment [1] and in experiment [2] was below 5 µM each time.

For `Cc1c(-c2ccnc(N)n2)sc2ccccc12` [Example 14, 4-(3-Methylbenzo[b]thiophen-2-yl)pyrimidin-2-amine], the IC50 in experiment [1] and in experiment [2] was below 5 µM each time.

`Nc1nccc(-c2sc3ccccc3c2Br)n1` [Example 15, 4-(3-Bromobenzo[b]thiophen-2-yl)pyrimidin-2-amine]: the IC50 in experiment [1] and in experiment [2] was below 5 µM throughout.

As for `CCc1c(-c2ccnc(N)n2)sc2ccc(Cl)cc12` [Example 16, 4-(5-Chloro-3-ethylbenzo[b]thiophen-2-yl)pyrimidin-2-amine], the IC50 in experiment [1] and in experiment [2] was below 5 µM throughout.

As to `Nc1nccc(-c2sc3ccc(Cl)cc3c2-c2ccccc2)n1` [Example 17, 4-(5-Chloro-3-phenylbenzo[b]thiophen-2-yl)pyrimidin-2-amine], the IC50 in experiment [1] and in experiment [2] was above 5 µM each time.

As to `Cc1c(-c2ccnc(N)n2)sc2cnccc12` [Example 18, 4-(3-Methylthieno[2,3-c]pyridin-2-yl)pyrimidin-2-amine], the IC50 in experiment [1] and in experiment [2] was below 5 µM in each case.

Turning to `Cc1c(-c2ccnc(N)n2)sc2ccc(C(=O)O)cc12` [Example 19, 2-(2-Aminopyrimidin-4-yl)-3-methylbenzo[b]thiophene-5-carboxylic acid], the IC50 in experiment [1] is below 5 µM; in experiment [2], above 5 µM.

Turning to `CC(=O)Nc1cccc(NC(=O)c2ccc3sc(-c4ccnc(N)n4)c(C)c3c2)c1` [Example 20, N-(3-Acetamidophenyl)-2-(2-aminopyrimidin-4-yl)-3-methylbenzo[b]thiophene-5-carboxamide], the IC50 in experiment [1] and in experiment [2] was below 5 µM throughout.

For `Cc1c(-c2ccnc(N)n2)sc2ccc(C(=O)Nc3ccc(OCCN4CCOCC4)cc3)cc12` [Example 21, 2-(2-Aminopyrimidin-4-yl)-3-methyl-N-(4-(2-morpholinoethoxy)phenyl)benzo[b]thiophene-5-carboxamide], the 50% inhibitory concentration (IC50) in experiment [1] and in experiment [2] was below 5 µM throughout.

Take `Cc1c(-c2ccnc(N)n2)sc2ccc(C(=O)N3CCC(NC(=O)OC(C)(C)C)C3)cc12` (centres unmarked) [Example 22, tert-Butyl 1-(2-(2-aminopyrimidin-4-yl)-3-methylbenzo[b]thiophene-5-carbonyl)pyrrolidin-3-ylcarbamate]: the IC50 in experiment [1] and in experiment [2] was above 5 µM throughout.

`Cc1c(-c2ccnc(N)n2)sc2ccc(C(=O)N3CCC(N)C3)cc12` (centres unmarked) [Example 23, (2-(2-Aminopyrimidin-4-yl)-3-methylbenzo[b]thiophen-5-yl)(3-aminopyrrolidin-1-yl)methanone]: the IC50 in experiment [1] and in experiment [2] was below 5 µM each time.

As to `Cc1c(-c2ccnc(N)n2)sc2ccc(Cc3ccccc3)cc12` [Example 24, 4-(5-Benzyl-3-methylbenzo[b]thiophen-2-yl)pyrimidin-2-amine], the IC50 in experiment [1] and in experiment [2] was below 5 µM throughout.

For the compound `COc1ccc(Cc2ccc3sc(-c4ccnc(N)n4)c(C)c3c2)cc1` [Example 25, 4-(5-(4-Methoxybenzyl)-3-methylbenzo[b]thiophen-2-yl)pyrimidin-2-amine], the 50% inhibitory concentration (IC50) in experiment [1] and in experiment [2] was above 5 µM throughout.

As to `CC(=O)Oc1cccc(Cc2ccc3sc(-c4ccnc(N)n4)c(C)c3c2)c1` [Example 28, 3-((2-(2-Aminopyrimidin-4-yl)-3-methylbenzo[b]thiophen-5-yl)methyl)phenyl acetate], the IC50 in experiment [1] and in experiment [2] was below 5 µM in each case.

With `Cc1c(-c2ccnc(N)n2)sc2ccc(Cc3cccc(OCCN4CCOCC4)c3)cc12` [Example 29, 4-(3-Methyl-5-(3-(2-morpholinoethoxy)benzyl)benzo[b]thiophen-2-yl)pyrimidin-2-amine], the IC50 in experiment [1] and in experiment [2] was below 5 µM throughout.

As for `Cc1c(-c2ccnc(N)n2)sc2ccc(Cc3cccc(OCCN(C)C)c3)cc12` [Example 30, 4-(5-(3-(2-(Dimethylamino)ethoxy)benzyl)-3-methylbenzo[b]thiophen-2-yl)pyrimidin-2-amine], the half-inhibitory concentration (IC50) in experiment [1] and in experiment [2] was below 5 µM throughout.

Regarding `Cc1c(-c2ccnc(N)n2)sc2ccc(Cc3cccc(OCCCN)c3)cc12` [Example 31, 4-(5-(3-(3-Aminopropoxy)benzyl)-3-methylbenzo[b]thiophen-2-yl)pyrimidin-2-amine], the IC50 in experiment [1] and in experiment [2] was below 5 µM in each case.

For `COc1cccc(C(N)c2ccc3sc(-c4ccnc(N)n4)c(C)c3c2)c1` (centres unmarked) [Example 32, 4-(5-(Amino(3-methoxyphenyl)methyl)-3-methylbenzo[b]thiophen-2-yl)pyrimidin-2-amine], the IC50 in experiment [1] and in experiment [2] was below 5 µM in each case.

For the compound `Cc1c(-c2ccnc(N)n2)sc2ccc(CN)cc12` [Example 33, 4-(5-(Aminomethyl)-3-methylbenzo[b]thiophen-2-yl)pyrimidin-2-amine], the IC50 in experiment [1] and in experiment [2] was below 5 µM each time.

For the compound `Cc1c(-c2ccnc(N)n2)sc2ccc(CNC(=O)c3cccs3)cc12` [Example 34, N-((2-(2-Aminopyrimidin-4-yl)-3-methylbenzo[b]thiophen-5-yl)methyl)thiophene-2-carboxamide], the 50% inhibitory concentration (IC50) in experiment [1] and in experiment [2] was below 5 µM each time.
